Test results as given in patent US20250346890A1, “LEUKEMIA TREATMENT” (Deutsches Krebsforschungszentrum, priority 2019, published 2025).
One block for each molecule: values may come before it.

Experiments:
[1] = test system: BMP signaling; test: BMP-reporter assay in Xenopus embryos; format: in vivo, Xenopus laevis
Method: In vitro fertilization, microinjection and culture of Xenopus embryos were performed as previously described (Gawantka et al. (1995), EMBO J 14, 6268-6279). X. laevis embryos were microinjected with reporter DNAs, in vitro transcribed mRNAs or antisense morpholino oligonucleotide (Mo) using Harvard Apparatus microinjection system. Mos for rspo2 (Kazanskaya et al (2004, loc. cit.), lrp6, chordin, bmp4, znrf3 and standard control were purchased from GeneTools. rspo2^ΔTSP Mo was designed based on rspo2 sequence. X. laevis 4-cell stage embryos were microinjected 5 nl per each blastomere equatorially and cultured until indicated stages. Equal amount of total mRNA or Mo were injected by adjustment with ppl or standard control Mo. Scoring of phenotypes was executed blind, and data are representative images from two independent experiments. Embryos in each image were selected using Magnetic Lasso tool or Magic Wand tool of Adobe Photoshop CS6 software, and pasted into the uniform background color for presentation. Statistical analyses show Chi-square tests.

[2] = test system: ALK3; test: Western blot analysis of ALK3 in injected Xenopus embryos; format: in vivo, Xenopus laevis; conditions: Xenopus embryos coinjected with alk3-EYFP mRNA
Method: Injected Xenopus embryos were harvested at stage 15 to 18, homogenized in NP-40 lysis buffer (2% NP-40, 20 mM Tris-HCl pH 7.5, 150 mM NaCl, 10 mM NaF, 10 mM Na3VO4, 10 mM sodium pyrophosphate, 5 mM EDTA, 1 mM EGTA, 1 mM PMSF, and complete Protease Inhibitor Cocktail with a volume of 20 μl per embryo. Lysates were cleared with CFC-113 (Honeywell 34874), followed by centrifugation (14,000 rpm, 10 min at 4° C.), boiling at 95° C. for 5 min with NuPAGE Sample Buffer. 0.5-1 embryos per lane were loaded for SDS-PAGE analysis.

[3] = target: T1, human ALK3-HA expressed in HEK293T cells (human, UniProt P36894 24-532); test: cell surface binding assay on HEK293T cells transfected with human ALK3-HA
T1 construct: whole, on cells; also called HA-tagged ALK3; BMPR1A
Method: Cell surface binding assays were carried essentially out as previously described (Dosch et al. (1997), Development 124, 2325-2334). In brief, human ALK3-HA and Xenopus tropicalis LGR4 DNA were transfected in HEK293T cells, and incubated with 1.5 U ml⁻¹ conditioned media for 3 hours on ice. After several washes and crosslinking, cells were treated with 2 mM Levamisole for 20 min to inactivate endogenous AP activities and developed with BM-Purple (Sigma 11442074001). Cells were mounted with Fluoromount G. Images were obtained using LEICA DMIL microscope/Canon DS126311 camera.

[4] = target: T2, recombinant human RSPO2 (Peprotech 120-43) (human, UniProt Q6UXX9 22-243); test: in vitro binding assay: plate-coated recombinant RSPO2, ALK3^ECD-AP conditioned medium, bound AP chemiluminescence; Scatchard plot
T2 construct: also called R-spondin 2
Method: High binding 96-well plates (Greiner M5811) were coated with 2 μg ml⁻¹ of recombinant human RSPO1 (Peprotech 120-38), RSPO2 (Peprotech 120-43), RSPO3 (Peprotech 120-44) or FGF8b (Peprotech 100-25) recombinant protein reconstituted in bicarbonate coating buffer (50 mM NaHCO₃, pH 9.6) overnight at 4° C. Coated wells were washed three times with TBST (TBS, 0.1% Tween-20) and blocked with 5% BSA in TBST for 1 hour at room temperature. 1.5 U ml⁻¹ of ALK3^ECD-AP or control conditioned medium was incubated overnight at 4° C. Wells were washed six times with TBST and bound AP activity was measured by the chemiluminescent SEAP Reporter Gene Assay kit (Abcam ab 133077). For ZNRF3-ALK3 binding assay, plates were coated with recombinant human ZNRF3 Fc Chimera protein (R&D systems 7994-RF). ALK3^ECD-AP was preincubated with RSPO2-Flag, RSPO2^ΔTSP-Flag conditioned medium or recombinant RSPO protein prior to treatment. Control conditioned medium and vesicles were used as control. […] Statistical analyses show unpaired t-tests.

Molecule: rspo2 Mo: antisense morpholino against Xenopus rspo2, GCCGTCCAAATGCAGTTTCAAC (SEQ ID NO:9) (all phosphorodiamidate morpholino (PMO))
endogenous BMP signaling ([1]; Xenopus neurulae, injection): increased endogenous BMP signaling
BMP signaling reporter, coinjection of bmp4 Mo and rspo2 Mo ([1]; coinjection with bmp4 Mo): canceled each other out
ALK3-EYFP protein levels [2]: increased ALK3-EYFP protein levels

B1: RSPO2^ΔTSP (human RSPO2 TSP1 domain deletion mutant) (ligand, not shown: small tags and cut ends)
chain: QGNRWRRSKRASYVSNPICKGCLSCSKDNGCSRCQQKLFFFLRREGMRQYGECLHSCPSGYYGHRAPDMNRCARCRIENCDSCFSKDFCTKCKVGFYLHRGRCFDECPDGFAPLEETMECVE
notes: also called RSPO2^ΔTSP-Flag
binding result [3]: no binding (tested: 1.5 U ml^-1 conditioned media)

Kd [4]: ~4.8 nM
B2: ALK3^ECD-AP (extracellular domain of ALK3 fused to alkaline phosphatase, conditioned medium) (receptor, UniProt P36894 24-152, looked up)
chain: QNLDSMLHGTGMKSDSDQKKSENGVTLAPEDTLPFLKCYCSGHCPDDAINNTCITNGHCFAIIEEDDQGETTLASGCMKYEGSDFQCKDSPKAQLRRTIECCRTNLCNQYLQPTLPPVVIGPFFDGSIR
notes: extracellular domain; also called BMPR1A extracellular domain; not shown: alkaline phosphatase (AP) fusion partner from AP-pCS2+
